# Measured values reported in patent US9839642B2, “Beta-tetrazolyl-propionic acids as metallo-beta-lactamase inhibitors” (priority 2014, dated 2017).
# What was measured:
# [1] = system: Escherichia coli expressing NDM-1 (CLB30016); assay: Antibiotic potentiation activity: synergistic concentration (MITC95) with imipenem, growth by OD600; type: cell-based; conditions: E. coli CLB30016 (NDM-1), 95% inhibition of growth
# Procedure, shortened: (§1)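 Strains grown overnight at 35° C, resuspended in saline, diluted 1:100 into 1.1×CAMHB; imipenem at 1 μg/ml or 4 μg/ml with test compound 200 μM to 0.195 μM. Incubated 22 hours to 24 hours at 35° C, OD600 read; MITC95 is lowest compound concentration inhibiting 95% of growth.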
# [2] = system: Serratia marcescens expressing IMP-1 (CL5741); assay: as above; type: cell-based; conditions: S. marcescens CL5741 (IMP-1), 95% inhibition of growth
# Procedure, shortened: as §1
# [3] = system: Klebsiella pneumoniae expressing VIM-1 (IHMA599644); assay: as above; type: cell-based; conditions: K. pneumoniae IHMA599644 (VIM-1), 95% inhibition of growth
# Procedure, shortened: as §1
# VIM-1 = VIM-1 (Pseudomonas aeruginosa, UniProt A0A0F7KYQ8); assay: Enzyme activity: determination of IC50, fluorescence assay with CCF2-FA substrate; type: biochemical; conditions: VIM-1 enzyme 30 pM, CCF2-FA 1.25 μM, 2 hours at 25° C.; read-out: VIM1 IC50
# Procedure, shortened: (§2)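 Enzyme (1 pM NDM-1, 2 pM IMP-1, 30 pM VIM-1) incubated with inhibitor (20 to 0.00063 μM) and 1.25 μM CCF2-FA in 100 mM KH2PO4 pH 7, 0.005% Tween-20, 10 μM ZnSO4, 2 h at 25 °C. Fluorescence read at 460 nm (ex 405 nm); IC50 by 4-parameter fit.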
# NDM-1 = NDM-1 (Klebsiella pneumoniae, UniProt C7C422); assay: as above; type: biochemical; conditions: NDM-1 enzyme 1 pM, CCF2-FA 1.25 μM, 2 hours at 25° C.; read-out: NDM1 IC50
# Procedure, shortened: as §2
# IMP-1 = IMP-1 (Serratia marcescens, UniProt P52699); assay: as above; type: biochemical; conditions: IMP-1 enzyme 2 pM, CCF2-FA 1.25 μM, 2 hours at 25° C.; read-out: IMP1 IC50
# Procedure, shortened: as §2
# IMP-1, sequence (P52699 19-246, looked up, species assumed): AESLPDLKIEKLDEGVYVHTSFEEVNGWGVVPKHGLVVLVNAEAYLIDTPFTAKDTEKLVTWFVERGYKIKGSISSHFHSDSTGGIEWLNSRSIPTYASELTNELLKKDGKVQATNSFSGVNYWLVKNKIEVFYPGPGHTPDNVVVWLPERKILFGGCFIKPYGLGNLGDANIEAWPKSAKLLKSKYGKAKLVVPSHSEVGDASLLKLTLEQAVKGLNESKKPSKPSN
# NDM-1, sequence (C7C422 29-270, looked up, species assumed): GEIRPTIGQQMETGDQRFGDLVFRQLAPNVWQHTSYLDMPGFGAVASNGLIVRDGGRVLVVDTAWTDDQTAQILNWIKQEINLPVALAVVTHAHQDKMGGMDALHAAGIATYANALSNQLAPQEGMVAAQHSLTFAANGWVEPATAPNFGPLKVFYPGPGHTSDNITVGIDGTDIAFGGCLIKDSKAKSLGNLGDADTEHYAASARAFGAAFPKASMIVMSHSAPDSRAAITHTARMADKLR
compound,measurement,setting,value
"CCC[C@H](C(=O)O)[C@H](Cc1cccc(-c2cccc(OC3CCNCC3)n2)c1)c1nn[nH]n1 [Example 348, (2S)-2-[(1S)-2-{3-[6-(piperidin-4-yloxy)pyridin-2-yl]phenyl}-1-(2H-tetrazol-5-yl)ethyl]pentanoic acid]",NDM1 EC30016 MITC95,[1],18.8 µM
same,IMP1 SM5741 MITC95,[2],6.2 µM
same,VIM1 KP599644 MITC95,[3],18.8 µM
same,IC50,VIM-1,2.2 nM
same,IC50,NDM-1,22 nM
same,IC50,IMP-1,540 nM
"CCC[C@H](C(=O)O)[C@H](Cc1cccc(-c2ccnc(N)c2)c1)c1nn[nH]n1 [Example 349, (2S)-2-[(1S)-2-[3-(2-aminopyridin-4-yl)phenyl]-1-(2H-tetrazol-5-yl)ethyl]pentanoic acid]",NDM1 EC30016 MITC95,[1],9.4 µM
same,IMP1 SM5741 MITC95,[2],3.9 µM
same,VIM1 KP599644 MITC95,[3],12.5 µM
same,IC50,VIM-1,1.3 nM
same,IC50,NDM-1,11 nM
same,IC50,IMP-1,140 nM
"CCC[C@H](C(=O)O)[C@H](Cc1cccc(-c2ccc(C3CCNCC3)cc2)c1)c1nn[nH]n1 [Example 350, (2S)-2-[(1S)-2-(4′-piperidin-4-ylbiphenyl-3-yl)-1-(2H-tetrazol-5-yl)ethyl]pentanoic acid]",NDM1 EC30016 MITC95,[1],25 µM
same,IMP1 SM5741 MITC95,[2],6.2 µM
same,VIM1 KP599644 MITC95,[3],25 µM
same,IC50,VIM-1,3 nM
same,IC50,NDM-1,26 nM
same,IC50,IMP-1,380 nM
"CCC[C@H](C(=O)O)[C@H](Cc1cccc(-c2ccc(C(N)=O)cc2)c1)c1nn[nH]n1 [Example 351, (2S)-2-[(1)-2-(4′-carbamoylbiphenyl-3-yl)-1-(2H-tetrazol-5-yl)ethyl]pentanoic acid]",NDM1 EC30016 MITC95,[1],7.8 µM
same,IMP1 SM5741 MITC95,[2],0.59 µM
same,VIM1 KP599644 MITC95,[3],25 µM
same,IC50,VIM-1,1.6 nM
same,IC50,NDM-1,0.78 nM
same,IC50,IMP-1,24 nM
"CCC[C@H](C(=O)O)[C@H](Cc1cccc(-c2cncc3ccccc23)c1)c1nn[nH]n1 [Example 352, (2S)-2-[(1S)-2-(3-isoquinolin-4-ylphenyl)-1-(2H-tetrazol-5-yl)ethyl]pentanoic acid]",NDM1 EC30016 MITC95,[1],18.8 µM
same,IMP1 SM5741 MITC95,[2],0.39 µM
same,VIM1 KP599644 MITC95,[3],50 µM
same,IC50,VIM-1,1.7 nM
same,IC50,NDM-1,1.7 nM
same,IC50,IMP-1,7.8 nM
"CCC[C@H](C(=O)O)[C@H](Cc1cccc(-c2ccncc2)c1)c1nn[nH]n1 [Example 353, (2S)-2-[(1S)-2-(3-pyridin-4-ylphenyl)-1-(2H-tetrazol-5-yl)ethyl]pentanoic acid]",NDM1 EC30016 MITC95,[1],38 µM
same,IMP1 SM5741 MITC95,[2],6.2 µM
same,VIM1 KP599644 MITC95,[3],100 µM
same,IC50,VIM-1,2.3 nM
same,IC50,NDM-1,13 nM
same,IC50,IMP-1,160 nM
"CCC[C@H](C(=O)O)[C@H](Cc1cccc(-c2ccc3c(c2)CCC(N)C3)c1)c1nn[nH]n1 (stereo partly drawn) [Example 354, (2S)-2-[(1S)-2-[3-(6-amino-5,6,7,8-tetrahydronaphthalen-2-yl)phenyl]-1-(2H-tetrazol-5-yl)ethyl]pentanoic acid]",NDM1 EC30016 MITC95,[1],9.4 µM
same,IMP1 SM5741 MITC95,[2],4.7 µM
same,VIM1 KP599644 MITC95,[3],9.4 µM
same,IC50,VIM-1,1.4 nM
same,IC50,NDM-1,13 nM
same,IC50,IMP-1,310 nM
"CCC[C@H](C(=O)O)[C@H](Cc1cccc(-c2ccc(N3CCNCC3)nc2)c1)c1nn[nH]n1 [Example 355, (2S)-2-[(1S)-2-[3-(6-piperazin-1-ylpyridin-3-yl)phenyl]-1-(2H-tetrazol-5-yl)ethyl]pentanoic acid]",NDM1 EC30016 MITC95,[1],12.5 µM
same,IMP1 SM5741 MITC95,[2],9.4 µM
same,VIM1 KP599644 MITC95,[3],18.8 µM
same,IC50,VIM-1,2.8 nM
same,IC50,NDM-1,21 nM
same,IC50,IMP-1,550 nM
"CCC[C@H](C(=O)O)[C@H](Cc1cccc(-c2cnc(N)c(F)c2)c1)c1nn[nH]n1 [Example 356, (2S)-2-[(1S)-2-[3-(6-amino-5-fluoropyridin-3-yl)phenyl]-1-(2H-tetrazol-5-yl)ethyl]pentanoic acid]",NDM1 EC30016 MITC95,[1],25 µM
same,IMP1 SM5741 MITC95,[2],4.7 µM
same,VIM1 KP599644 MITC95,[3],18.8 µM
same,IC50,VIM-1,1.5 nM
same,IC50,NDM-1,6.2 nM
same,IC50,IMP-1,170 nM
"CCC[C@H](C(=O)O)[C@H](Cc1cccc(-c2ccccc2CN2CCCCC2)c1)c1nn[nH]n1 [Example 357, (2S)-2-[(1S)-2-[2′-(piperidin-1-ylmethyl)biphenyl-3-yl]-1-(2H-tetrazol-5-yl)ethyl]pentanoic acid]",NDM1 EC30016 MITC95,[1],150 µM
same,IMP1 SM5741 MITC95,[2],38 µM
same,VIM1 KP599644 MITC95,[3],150 µM
same,IC50,VIM-1,63 nM
same,IC50,NDM-1,170 nM
same,IC50,IMP-1,2100 nM
"CCC[C@H](C(=O)O)[C@H](Cc1cccc(-c2cccc(CN3CCCCC3)c2)c1)c1nn[nH]n1 [Example 358, (2S)-2-[(1S)-2-[3′-(piperidin-1-ylmethyl)biphenyl-3-yl]-1-(2H-tetrazol-5-yl)ethyl]pentanoic acid]",NDM1 EC30016 MITC95,[1],38 µM
same,IMP1 SM5741 MITC95,[2],12.5 µM
same,VIM1 KP599644 MITC95,[3],62 µM
same,IC50,VIM-1,6.2 nM
same,IC50,NDM-1,47 nM
same,IC50,IMP-1,1000 nM
"CCC[C@H](C(=O)O)[C@H](Cc1cccc(-c2cccc(CN)c2)c1)c1nn[nH]n1 [Example 359, (2S)-2-[(1S)-2-[3′-(aminomethyl)biphen-yl-3-yl]-1-(2H-tetrazol-5-yl)ethyl]pentanoic acid]",NDM1 EC30016 MITC95,[1],9.4 µM
same,IMP1 SM5741 MITC95,[2],12.5 µM
same,VIM1 KP599644 MITC95,[3],6.2 µM
same,IC50,VIM-1,2.5 nM
same,IC50,NDM-1,60 nM
same,IC50,IMP-1,750 nM
"CCC[C@H](C(=O)O)[C@H](Cc1cccc(N2CCCC(O)C2)c1)c1nn[nH]n1 (stereo partly drawn) [Example 360, (2S)-2-[(1S)-2-[3-(3-hydroxypiperidin-1-yl)phenyl]-1-(2H-tetrazol-5-yl)ethyl]pentanoic acid]",NDM1 EC30016 MITC95,[1],25 µM
same,IMP1 SM5741 MITC95,[2],18.8 µM
same,VIM1 KP599644 MITC95,[3],150 µM
same,IC50,VIM-1,13 nM
same,IC50,NDM-1,47 nM
same,IC50,IMP-1,510 nM
"CCC[C@H](C(=O)O)[C@H](Cc1cccc(N(C)CCN(C)C)c1)c1nn[nH]n1 [Example 361, (2S)-2-[(1S)-2-(3-{[2-(dimethylamino)ethyl] (methyl)amino}phenyl)-1-(2H-tetrazol-5-yl)ethyl]pentanoic acid]",NDM1 EC30016 MITC95,[1],38 µM
same,IMP1 SM5741 MITC95,[2],150 µM
same,VIM1 KP599644 MITC95,[3],25 µM
same,IC50,VIM-1,29 nM
same,IC50,NDM-1,390 nM
same,IC50,IMP-1,8700 nM
"CCC[C@H](C(=O)O)[C@H](Cc1cccc(N2CCN(C)CC2)c1)c1nn[nH]n1 [Example 362, (2S)-2-[(1S)-2-[3-(4-methylpiperazin-1-yl)phenyl]-1-(2H-tetrazol-5-yl)ethyl]pentanoic acid]",NDM1 EC30016 MITC95,[1],25 µM
same,IMP1 SM5741 MITC95,[2],150 µM
same,VIM1 KP599644 MITC95,[3],18.8 µM
same,IC50,VIM-1,10 nM
same,IC50,NDM-1,640 nM
same,IC50,IMP-1,11000 nM
"CCC[C@H](C(=O)O)[C@H](Cc1cccc(N2CCN(C(C)=O)CC2)c1)c1nn[nH]n1 [Example 363, (2S)-2-[(1S)-2-[3-(4-acetylpiperazin-1-yl)phenyl]-1-(2H-tetrazol-5-yl)ethyl]pentanoic acid]",NDM1 EC30016 MITC95,[1],100 µM
same,IMP1 SM5741 MITC95,[2],25 µM
same,VIM1 KP599644 MITC95,[3],100 µM
same,IC50,VIM-1,20 nM
same,IC50,NDM-1,150 nM
same,IC50,IMP-1,810 nM
"CCC[C@H](C(=O)O)[C@H](Cc1cccc(N2CC[C@@H](N)C2)c1)c1nn[nH]n1 [Example 364, (2S)-2-[(1S)-2-{3-[(3R)-3-aminopyrrolidin-1-yl]phenyl}-1-(2H-tetrazol-5-yl)ethyl]pentanoic acid]",NDM1 EC30016 MITC95,[1],9.4 µM
same,IMP1 SM5741 MITC95,[2],38 µM
same,VIM1 KP599644 MITC95,[3],12.5 µM
same,IC50,VIM-1,2.4 nM
same,IC50,NDM-1,110 nM
same,IC50,IMP-1,1600 nM
"CCC[C@H](C(=O)O)[C@H](Cc1cccc(N2CCOCC2)c1)c1nn[nH]n1 [Example 365, (2S)-2-[(1S)-2-(3-morpholin-4-ylphenyl)-1-(2H-tetrazol-5-yl)ethyl]pentanoic acid]",NDM1 EC30016 MITC95,[1],38 µM
same,IMP1 SM5741 MITC95,[2],38 µM
same,VIM1 KP599644 MITC95,[3],50 µM
same,IC50,VIM-1,20 nM
same,IC50,NDM-1,82 nM
same,IC50,IMP-1,1500 nM
"CCC[C@H](C(=O)O)[C@H](Cc1cccc(N2CCC[C@H](N)C2)c1)c1nn[nH]n1 [Example 366, (2S)-2-[(1S)-2-{3-[(3S)-3-aminopiperidin-1-yl]phenyl}-1-(2H-tetrazol-5-yl)ethyl]pentanoic acid]",NDM1 EC30016 MITC95,[1],50 µM
same,IMP1 SM5741 MITC95,[2],150 µM
same,VIM1 KP599644 MITC95,[3],25 µM
same,IC50,VIM-1,13 nM
same,IC50,NDM-1,870 nM
same,IC50,IMP-1,8600 nM
"CCC[C@H](C(=O)O)[C@H](Cc1cccc(N2CCNC(=O)C2)c1)c1nn[nH]n1 [Example 367, (2S)-2-[(1S)-2-[3-(3-oxopiperazin-1-yl)phenyl]-1-(2H-tetrazol-5-yl)ethyl]pentanoic acid]",NDM1 EC30016 MITC95,[1],>200 µM
same,IMP1 SM5741 MITC95,[2],>200 µM
same,VIM1 KP599644 MITC95,[3],>200 µM
same,IC50,VIM-1,260 nM
same,IC50,NDM-1,1400 nM
same,IC50,IMP-1,> 20000 nM
